In ChEMBL document CHEMBL1201862, “PubChem BioAssay data set” (2004):
Calls of active or inactive are those of the source.

Tests used:
[1] = target: T1, Trace amine-associated receptor 1 (Homo sapiens, UniProt Q96RJ0); experiment: Counterscreen for agonists of the human trace amine associated receptor 1 (hTAAR1): Fluorescence-based cell-based high throughput dose response assay to identify hTAAR1 agonist that also desensitize TAAR1 receptor response.; format: functional
T1 sequence (Q96RJ0 whole entry): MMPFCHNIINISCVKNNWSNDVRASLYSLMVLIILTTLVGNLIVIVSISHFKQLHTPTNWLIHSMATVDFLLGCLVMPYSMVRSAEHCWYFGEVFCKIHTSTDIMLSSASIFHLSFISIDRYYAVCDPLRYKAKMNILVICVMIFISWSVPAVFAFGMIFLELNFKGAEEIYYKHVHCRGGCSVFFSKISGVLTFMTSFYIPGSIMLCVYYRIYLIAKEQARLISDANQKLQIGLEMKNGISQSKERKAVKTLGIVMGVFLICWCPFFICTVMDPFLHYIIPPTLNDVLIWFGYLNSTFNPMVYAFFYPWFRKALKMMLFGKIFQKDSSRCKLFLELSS

[2] = cells; format: functional, cell-based
[3] = cells; format: functional, cell-based; remark: listed apart in the source
[4] = target: T1, Trace amine-associated receptor 1; experiment: Fluorescence-based cell-based high throughput dose response assay to identify agonists of the human trace amine associated receptor 1 (TAAR1).; format: functional
[5] = target: T2, Protein skinhead-1 (Caenorhabditis elegans, UniProt P34707); format: functional
T2 sequence (P34707 whole entry): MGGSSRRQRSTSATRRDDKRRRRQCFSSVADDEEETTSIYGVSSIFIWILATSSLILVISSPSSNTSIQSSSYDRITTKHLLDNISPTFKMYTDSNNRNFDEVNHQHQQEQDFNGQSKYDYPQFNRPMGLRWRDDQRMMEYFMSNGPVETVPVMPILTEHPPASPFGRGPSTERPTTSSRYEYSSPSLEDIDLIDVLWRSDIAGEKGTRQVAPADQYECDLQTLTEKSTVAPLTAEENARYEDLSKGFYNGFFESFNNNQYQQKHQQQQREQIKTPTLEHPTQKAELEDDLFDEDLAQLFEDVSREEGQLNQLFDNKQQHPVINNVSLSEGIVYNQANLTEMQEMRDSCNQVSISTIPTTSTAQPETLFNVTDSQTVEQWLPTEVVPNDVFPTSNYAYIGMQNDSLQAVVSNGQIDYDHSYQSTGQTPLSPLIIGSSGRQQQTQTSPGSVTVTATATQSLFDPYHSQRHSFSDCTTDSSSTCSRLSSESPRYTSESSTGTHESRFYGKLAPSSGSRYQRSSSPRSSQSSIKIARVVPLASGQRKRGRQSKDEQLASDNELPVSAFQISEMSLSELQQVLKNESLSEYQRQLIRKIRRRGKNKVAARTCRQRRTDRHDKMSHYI

[6] = HIV-1 AD8 envelope cell-cell fusion blockers – cherry-pick, dose response (AID 652062); format: functional, cell-based;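 also: luciferase signal from cell-cell fusion driven by HIV-1 clade B AD8 Env; potency is for inhibitors of fusion seen as a drop in luminescence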
[7] = blockers of HIV-1 envelope-mediated cell-cell fusion – cherry-pick, dose response (AID 652057); format: functional, cell-based
[8] = target: Paired box protein Pax-8 (Homo sapiens, UniProt Q06710); experiment: PAX8 transcriptional activity inhibition in RMG-I – RMG-I cells, luciferase, cherry-pick, dose response (AID 687027); format: functional, cell-based;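 also: luciferase reporter driven by Pax8 target thyroperoxidase promoter measured by SteadyGlo luminescence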
Chain of Paired box protein Pax-8 (Q06710 whole entry): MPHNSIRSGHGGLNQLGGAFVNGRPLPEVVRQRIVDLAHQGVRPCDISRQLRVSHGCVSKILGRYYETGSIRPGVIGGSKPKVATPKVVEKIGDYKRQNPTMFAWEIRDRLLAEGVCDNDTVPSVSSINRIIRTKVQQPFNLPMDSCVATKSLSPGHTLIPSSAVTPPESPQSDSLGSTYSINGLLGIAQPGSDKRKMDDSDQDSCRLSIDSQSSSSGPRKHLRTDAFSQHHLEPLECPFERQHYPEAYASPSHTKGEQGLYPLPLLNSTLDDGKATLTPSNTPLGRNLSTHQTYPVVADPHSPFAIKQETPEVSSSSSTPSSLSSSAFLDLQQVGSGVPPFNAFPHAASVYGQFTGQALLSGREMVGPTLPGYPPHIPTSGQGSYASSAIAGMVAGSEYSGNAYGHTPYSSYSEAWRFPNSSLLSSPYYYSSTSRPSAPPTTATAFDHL

[9] = target: T3, Rac GTPase-activating protein 1 (Homo sapiens, UniProt Q9H0H5); experiment: blockers of MgcRacGAP-driven Rac1 GTP hydrolysis – biochemical, ADP Hunter fluorescence, primary and confirmatory, confirmation (AID 624330); format: functional
T3 sequence (Q9H0H5 whole entry): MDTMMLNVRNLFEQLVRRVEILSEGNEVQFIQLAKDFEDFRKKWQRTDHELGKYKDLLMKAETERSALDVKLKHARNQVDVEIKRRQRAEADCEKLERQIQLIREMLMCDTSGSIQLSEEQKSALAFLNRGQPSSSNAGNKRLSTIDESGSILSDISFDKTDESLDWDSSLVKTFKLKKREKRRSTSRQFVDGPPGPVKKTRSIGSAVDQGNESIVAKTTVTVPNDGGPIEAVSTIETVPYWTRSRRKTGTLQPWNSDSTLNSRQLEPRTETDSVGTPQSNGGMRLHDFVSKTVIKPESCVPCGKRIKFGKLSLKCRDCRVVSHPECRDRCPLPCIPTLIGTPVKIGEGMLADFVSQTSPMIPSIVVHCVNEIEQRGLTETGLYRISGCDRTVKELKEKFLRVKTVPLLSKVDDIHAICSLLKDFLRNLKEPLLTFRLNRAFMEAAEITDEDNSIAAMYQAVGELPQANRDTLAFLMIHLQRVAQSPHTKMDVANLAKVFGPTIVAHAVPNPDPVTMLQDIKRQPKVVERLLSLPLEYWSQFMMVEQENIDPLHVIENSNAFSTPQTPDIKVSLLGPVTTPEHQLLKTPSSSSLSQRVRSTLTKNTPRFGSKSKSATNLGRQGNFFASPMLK

[10] = target: T4, Long-chain-fatty-acid--AMP ligase FadD28 (Mycobacterium tuberculosis, UniProt P9WQ59); experiment: Fluorescence polarization aasay to screen for inhibitors that compete for the binding of FadD28 to a bisubstrate Measured in Biochemical System Using Plate Reader - 2147-01_Inhibitor_Dose_CherryPick_Activity.; format: functional, Mycobacterium tuberculosis H37Rv
T4 sequence (P9WQ59 whole entry): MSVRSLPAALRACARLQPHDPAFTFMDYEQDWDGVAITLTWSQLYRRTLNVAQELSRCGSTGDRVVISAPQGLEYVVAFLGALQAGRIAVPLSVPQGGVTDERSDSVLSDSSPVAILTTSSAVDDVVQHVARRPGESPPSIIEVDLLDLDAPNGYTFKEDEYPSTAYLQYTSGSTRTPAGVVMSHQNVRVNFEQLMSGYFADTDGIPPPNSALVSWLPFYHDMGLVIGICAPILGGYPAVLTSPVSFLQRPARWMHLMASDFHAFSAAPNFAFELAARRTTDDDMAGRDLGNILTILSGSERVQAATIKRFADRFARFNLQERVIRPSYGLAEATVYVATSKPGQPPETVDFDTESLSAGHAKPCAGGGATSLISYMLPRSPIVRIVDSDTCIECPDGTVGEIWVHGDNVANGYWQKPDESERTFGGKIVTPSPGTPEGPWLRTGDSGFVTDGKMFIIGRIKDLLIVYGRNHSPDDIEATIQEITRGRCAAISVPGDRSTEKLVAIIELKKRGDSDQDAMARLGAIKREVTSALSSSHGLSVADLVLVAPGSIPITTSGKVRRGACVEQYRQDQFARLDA

[11] = off-target signal loss in HeLa-CEM21 co-culture – HeLa F-luc CTL cells, cherry-picked, counter-screen for HIV-1 Env fusion inhibitor project, dose response (AID 652040); format: functional, cell-based;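 also: potency for signal decrease marking cytotoxic or nonspecific inhibition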
[12] = target: Genome polyprotein (dengue virus type 2, UniProt P29990); experiment: flavivirus cap methylation enzyme inhibition – biochemical, confirmation dose response, primary screen (AID 588689); format: functional
Chain of Genome polyprotein (P29990 2492-3391 limits assumed): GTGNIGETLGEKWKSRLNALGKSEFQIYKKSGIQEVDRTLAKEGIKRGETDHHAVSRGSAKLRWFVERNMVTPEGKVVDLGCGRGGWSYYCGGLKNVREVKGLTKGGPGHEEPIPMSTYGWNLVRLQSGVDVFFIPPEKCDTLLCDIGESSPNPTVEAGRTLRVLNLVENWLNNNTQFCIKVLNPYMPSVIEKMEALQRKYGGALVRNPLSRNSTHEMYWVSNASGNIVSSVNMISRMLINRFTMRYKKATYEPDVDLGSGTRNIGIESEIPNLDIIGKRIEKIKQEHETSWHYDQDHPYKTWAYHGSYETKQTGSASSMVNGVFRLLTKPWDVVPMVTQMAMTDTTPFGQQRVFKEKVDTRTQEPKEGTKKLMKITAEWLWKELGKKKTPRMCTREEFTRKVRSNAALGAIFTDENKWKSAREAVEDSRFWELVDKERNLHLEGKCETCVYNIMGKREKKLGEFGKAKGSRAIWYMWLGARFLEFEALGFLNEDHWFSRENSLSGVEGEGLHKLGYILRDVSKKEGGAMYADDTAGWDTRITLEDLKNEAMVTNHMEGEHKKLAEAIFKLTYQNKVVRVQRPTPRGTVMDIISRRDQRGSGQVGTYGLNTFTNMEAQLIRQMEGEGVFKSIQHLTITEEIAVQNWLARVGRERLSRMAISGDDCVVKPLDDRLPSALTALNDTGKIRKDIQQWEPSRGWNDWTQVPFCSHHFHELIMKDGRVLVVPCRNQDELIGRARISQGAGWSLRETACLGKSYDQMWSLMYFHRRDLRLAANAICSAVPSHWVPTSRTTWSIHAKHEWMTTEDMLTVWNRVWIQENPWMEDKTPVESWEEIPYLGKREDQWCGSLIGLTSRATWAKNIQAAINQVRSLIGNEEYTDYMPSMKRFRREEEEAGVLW

With `O=C(NCCc1ccccc1)c1ccc(CS(=O)(=O)Cc2ccccc2F)o1` the IC50 [1] was 5.69 µM (active), the EC50 [2] was > 29.9 µM (inactive) and the IC50 [3] was 17.7 µM (inactive). For the same compound, the EC50 [4] was 2.78 µM (active).

For `C=CCSc1nnc2c(n1)-c1cccc3cccc-2c13`, the IC50 [5] was 18.2 µM (active).

In the case of `COc1cccc(S(=O)(=O)N(C)C[C@@H]2Oc3cc(C#CCC(C)C)ccc3S(=O)(=O)N([C@H](C)CO)C[C@@H]2C)c1`, the AC50 [6] is reported as 17.9 µM (active) and the AC50 [7] is reported as 20.1 µM (active).

With `CC(C)(C)N(Cc1ccc2c(c1)OCO2)C(=O)/C=C\[S+]([O-])c1ccccc1` (stereo not given) the AC50 [8] was 6.14 µM (active) and the IC50 [9] was 125 µM (active).

In the case of `Cc1cccc(NC2=NCC(=O)N2CCc2ccccc2)c1`, the IC50 [1] is reported as 7.06 µM (active), the EC50 [2] is reported as > 29.9 µM (inactive) and the IC50 [3] is reported as > 29.9 µM (inactive). For the same compound, the EC50 [4] was 0.866 µM (active).

In the case of `c1ccc(-c2csc(-c3cccnc3)n2)cc1`, the IC50 [5] is reported as 40.4 µM (active).

For `COc1ccc(C(=O)OCC(=O)c2ccccc2)cc1S(=O)(=O)N1CCOCC1`, the AC50 [10] was > 100 µM (inactive).

With `NC(=O)C1CCN(c2oc(-c3ccccc3F)nc2S(=O)(=O)c2ccc(Cl)cc2)CC1` the IC50 [5] was > 100 µM (inactive).

In the case of `C=CCn1c(SCC(=O)c2c(N)n(C)c(=O)n(C)c2=O)nnc1-c1ccoc1C`, the IC50 [5] is reported as > 100 µM (inactive).

For `COc1cccc(NC(=O)Cn2c(=O)oc3ccccc32)c1`, the AC50 [10] was 8.71 µM (active).

In the case of `O=C(Nc1ccc2oc(-c3ccccc3)nc2c1)c1cccnc1`, the IC50 [5] is reported as > 100 µM (inactive).

For `Cn1c(=O)oc2cc(S(=O)(=O)NCc3ccncc3)ccc21`, the AC50 [6] was 17.4 µM (active) and the AC50 [11] was 58.5 µM (active).

In the case of `Cc1nc(NCCc2ccccc2)c2nnn(Cc3ccccc3Cl)c2n1`, the IC50 [1] is reported as 3.51 µM (active), the EC50 [2] is reported as > 29.9 µM (inactive) and the IC50 [3] is reported as > 29.9 µM (inactive). The EC50 [4] was 0.59 µM (active).

With `O=C(CSc1nc(O)cc(=O)n1-c1ccccc1)Nc1nc2ccccc2s1` the AC50 [10] was 32 µM (active).

With `NC(Cc1ccc(F)cc1)c1csc(Nc2ccc(S(N)(=O)=O)cc2)n1` (stereo not given) the IC50 [1] was > 29.9 µM (inactive), the EC50 [2] was > 29.9 µM (inactive) and the IC50 [3] was > 29.9 µM (inactive). For the same compound, the EC50 [4] was 5.18 µM (active).

For `O=c1c(-c2ccc(O)cc2)coc2cc(O)ccc12` [DAIDZEIN], the IC50 [9] was 91.3 µM (active).

In the case of `C=CCc1cc(C)ccc1OCCCn1ccnc1`, the IC50 [9] is reported as 127 µM (active).

In the case of `COc1cc(/C=N/NC(=O)CNC(=O)c2ccc3c(c2)OCCO3)ccc1O`, the IC50 [9] is reported as 54.9 µM (active).

With `COc1ccc2c(c1)Cc1cc(NC(=O)c3ccccc3-c3ccccc3C(=O)O)ccc1-2` the IC50 [12] was 46.3 µM (active) and the AC50 [10] was 89.9 µM (active).
